The values that follow come from PMC9095466 (Nature, 2022).

Values joined by “and” are separate entries in the source; they are usually repeats but may differ in a detail not shown here. Equal values may be shown once. Read-outs that look alike come from different tables or passages of the source. Bounds are passed on as bounds.

One data set deals with T1, Recombinant human DESC1 (Homo sapiens, UniProt Q9UL52).
T1 construct: made in house
T1 sequence (Q9UL52 1-423): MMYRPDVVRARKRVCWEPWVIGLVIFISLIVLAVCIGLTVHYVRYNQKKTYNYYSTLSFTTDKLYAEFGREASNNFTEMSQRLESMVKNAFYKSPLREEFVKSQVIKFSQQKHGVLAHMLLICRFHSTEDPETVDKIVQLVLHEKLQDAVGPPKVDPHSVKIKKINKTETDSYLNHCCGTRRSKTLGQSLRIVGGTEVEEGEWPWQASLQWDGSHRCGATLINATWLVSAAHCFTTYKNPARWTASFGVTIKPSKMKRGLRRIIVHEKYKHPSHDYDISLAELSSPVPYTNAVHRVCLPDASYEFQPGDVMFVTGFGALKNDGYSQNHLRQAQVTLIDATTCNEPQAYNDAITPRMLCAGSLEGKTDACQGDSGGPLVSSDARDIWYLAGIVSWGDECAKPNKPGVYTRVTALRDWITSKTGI
The data set can be described thus: Protease selectivity, Ki on recombinant protease. The format is biochemical.

The target of another data set is T2, human cathepsin L (Homo sapiens, UniProt P07711).
T2 construct: purchased Bio-Techne
T2 sequence (P07711 114-333): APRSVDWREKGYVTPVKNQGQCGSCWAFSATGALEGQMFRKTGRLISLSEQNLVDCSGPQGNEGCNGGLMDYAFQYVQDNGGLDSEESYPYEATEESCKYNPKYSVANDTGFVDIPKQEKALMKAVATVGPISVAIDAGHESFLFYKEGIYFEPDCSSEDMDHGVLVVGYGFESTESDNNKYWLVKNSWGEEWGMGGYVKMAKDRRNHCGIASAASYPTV
The data set can be described thus: Protease selectivity, Ki on protease. The format is biochemical.

Data set [1] can be described thus: Cytotoxicity CC50 in Calu-3 lung epithelial cells. The format is cell-based, human. As to conditions: human; for viability at 24 h, 3000 µM: Log [inhibitor] -2.52; for viability at 24 h, 1000 µM: Log [inhibitor] -3.00; for viability at 24 h, 300 µM: Log [inhibitor] -3.52; for viability at 24 h, 100 µM: Log [inhibitor] -4.00; for viability at 24 h, 30 µM: Log [inhibitor] -4.52; for viability at 24 h, 10 µM: Log [inhibitor] -5.00; for viability at 24 h, 3 µM: Log [inhibitor] -5.52; for viability at 24 h, 0.3 µM: Log [inhibitor] -6.52; for viability at 24 h, 0.03 µM: Log [inhibitor] -7.52; for viability at 24 h, 0.003 µM: Log [inhibitor] -8.52.

The next data set deals with Calu-3 cells. The experiment in a line: Cytotoxicity CC50 in Calu-3 lung epithelial cells. The format is cell-based, human. As to conditions: single replicates.
The next data set deals with human TMPRSS2 (Homo sapiens, UniProt O15393). The experiment in a line: cell-based. As to conditions: for TMPRSS2 activity (%): Figure 1B, single experiments N1-N3; for inhibition at 0.01 µM: Vero C1008, 10 nM compound, 24 h, vs untreated/vehicle TMPRSS2-expressing Vero E6 cells, read-out: inhibition of TMPRSS2 activity (reduction of substrate proteolysis).
Chain of human TMPRSS2 (O15393 whole entry): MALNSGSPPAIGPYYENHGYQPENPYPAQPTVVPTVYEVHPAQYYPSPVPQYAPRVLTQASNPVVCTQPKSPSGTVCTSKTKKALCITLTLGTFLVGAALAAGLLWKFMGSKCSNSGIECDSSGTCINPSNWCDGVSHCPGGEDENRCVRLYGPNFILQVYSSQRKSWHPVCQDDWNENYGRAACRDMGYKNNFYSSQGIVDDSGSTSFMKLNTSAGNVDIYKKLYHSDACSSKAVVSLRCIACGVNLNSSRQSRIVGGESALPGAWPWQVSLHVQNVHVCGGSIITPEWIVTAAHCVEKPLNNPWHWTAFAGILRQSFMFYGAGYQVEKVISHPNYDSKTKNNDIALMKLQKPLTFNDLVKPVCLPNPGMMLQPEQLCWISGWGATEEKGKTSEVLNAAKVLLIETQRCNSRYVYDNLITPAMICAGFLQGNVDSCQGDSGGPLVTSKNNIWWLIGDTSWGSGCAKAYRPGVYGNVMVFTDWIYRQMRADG
The target of another data set is T3, human thrombin (Homo sapiens, UniProt P00734).
T3 construct: purchased MilliporeSigma
The experiment in a line: Protease selectivity, Ki on protease. The format is biochemical. As to conditions: mean ± s.d., max concentration 10 µM; read-out: Ki Thrombin.

A further data set has as its target T4, Recombinant human furin (Homo sapiens, UniProt P09958).
T4 construct: purchased Bio-Techne
The data set can be described thus: Protease selectivity, Ki on recombinant protease. The format is biochemical. Particulars: mean ± s.d., max concentration 10 µM; read-out: Ki Furin.

Data set [2] relates to SARS-CoV-2 lineage B strain (VIDO). The data set can be described thus: microbe, parasite or virus in culture. The format is cell-based.
Setting [3] is: single experiments N1-N3, Figure 1D, read-out: Individual Ki, Desc1.
[4] abbreviates: single experiments N1-N4, Figure 1D, read-out: Individual Ki, Cathepsin L.
Where [5] appears, read: Calu-3 cells, read-out: % of Viability, Average (n=2).
The mark [6] stands for this setting: Calu-3 cells, single replicates, read-out: % of Viability.
The mark [7] stands for this setting: Calu-3 cells, unit not given for CC50, read-out: CC50.
The mark [8] stands for this setting: Figure 2a; two replicates; DMSO control about 91-94.
Setting [9] is: Figure 2a; two replicates; DMSO control about 93-95.
The mark [10] stands for this setting: Severe acute respiratory syndrome coronavirus 2, Calu-3; read-out: inhibition of SARS-CoV-2 infection.

T4 sequence (P09958 108-794): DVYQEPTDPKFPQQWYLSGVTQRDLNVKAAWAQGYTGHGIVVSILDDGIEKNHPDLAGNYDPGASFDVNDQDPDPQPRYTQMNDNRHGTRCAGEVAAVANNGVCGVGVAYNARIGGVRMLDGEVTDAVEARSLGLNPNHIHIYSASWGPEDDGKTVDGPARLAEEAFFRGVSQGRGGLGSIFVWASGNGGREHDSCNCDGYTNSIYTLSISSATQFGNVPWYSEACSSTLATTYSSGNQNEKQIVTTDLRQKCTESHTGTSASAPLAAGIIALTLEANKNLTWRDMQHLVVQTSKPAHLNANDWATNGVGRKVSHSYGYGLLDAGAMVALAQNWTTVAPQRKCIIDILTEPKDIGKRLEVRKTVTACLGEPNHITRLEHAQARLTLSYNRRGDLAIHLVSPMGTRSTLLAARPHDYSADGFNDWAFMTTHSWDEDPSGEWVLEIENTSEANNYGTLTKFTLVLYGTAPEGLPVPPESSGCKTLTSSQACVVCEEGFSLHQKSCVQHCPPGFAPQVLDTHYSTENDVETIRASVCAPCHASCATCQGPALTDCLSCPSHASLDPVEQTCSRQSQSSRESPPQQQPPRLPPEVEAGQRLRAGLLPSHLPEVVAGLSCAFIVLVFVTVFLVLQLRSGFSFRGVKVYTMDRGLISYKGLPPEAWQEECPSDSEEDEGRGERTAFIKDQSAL

The term Ki denotes a dissociation constant, usually derived from enzyme kinetics or from competition with a known ligand. Take `CS(=O)(=O)N[C@@H](CCC(N)=O)C(=O)N[C@@H](Cc1ccccc1)C(=O)N[C@@H](CCCNC(=N)N)C(=O)c1nc2ccccc2s1` [Compound N-00385]: the Ki on Recombinant human DESC1 (setting [3]) was 0.0253 µM and 0.0169 µM and 0.0346 µM; at human cathepsin L (setting [4]), 9.7 µM and 9.06 µM and 3.83 µM and 2.57 µM.
The term viability denotes a read-out of living cells in per cent, often relative to untreated cells. What is called CC50 is the concentration at which the toxic effect on the cells reaches its halfway point. For `CS(=O)(=O)N[C@@H](CCC(N)=O)C(=O)N[C@@H](Cc1ccccc1)C(=O)N[C@@H](CCCNC(=N)N)C(=O)c1nc2ccccc2s1` [Compound N-385], in data set [1] (setting [5]), the viability at 24 h, 3000 µM was determined as 52.5%; the viability at 24 h, 1000 µM stood at 80.5%; the viability at 24 h, 300 µM was found to be 92%; the viability at 24 h, 100 µM stood at 91%. In data set [1] (setting [5]), the viability at 24 h, 30 µM was determined as 87%; the viability at 24 h, 10 µM is 101%; the viability at 24 h, 3 µM was 110%; the viability at 24 h, 0.3 µM turned out to be 111%. For the same molecule, in data set [1] (setting [5]), the viability at 24 h, 0.03 µM turned out to be 110% and the viability at 24 h, 0.003 µM stood at 117%. Also, in data set [1] (setting [6]), the viability at 24 h, 1000 µM came out at 74%; the viability at 24 h, 300 µM came out at 90%; the viability at 24 h, 100 µM was 94%; the viability at 24 h, 30 µM is 90%. Moreover, in data set [1] (setting [6]), the viability at 24 h, 10 µM was 103%; the viability at 24 h, 3 µM turned out to be 110%; the viability at 24 h, 0.3 µM was 113%; the viability at 24 h, 0.03 µM came out at 116%. Further, the viability at 24 h, 0.003 µM in data set [1] (setting [6]) stood at 119%. Moreover, the CC50 at 24 h in data set [1] (setting [7]) was determined as 3470 µM. The “% of Viability” value with Calu-3 cells (Log [inhibitor] -2.52) was 42% and 63%. Further, the “% of Viability” value in the data set with Calu-3 cells (Log [inhibitor] -4.00) amounted to 88%. Also, the “% of Viability” value in the data set on Calu-3 cells (Log [inhibitor] -4.52) came to 84%. Also, in the data set on Calu-3 cells (Log [inhibitor] -5.00), the “% of Viability” value worked out at 99%. Moreover, the “% of Viability” value in the data set with Calu-3 cells (Log [inhibitor] -6.52) is on record as 109%. In the data set with Calu-3 cells (Log [inhibitor] -7.52), the “% of Viability” value is on record as 105%. The “% of Viability” value with Calu-3 cells (Log [inhibitor] -8.52) was 115%.
The term inhibition denotes the change of the read-out against control, counted positive when it falls. Usually EC50 stands for the concentration giving half of the maximal effect. For `CC(=O)NC(CCC(N)=O)C(=O)NC(Cc1ccccc1)C(=O)NC(CCCNC(=N)N)C(=O)c1nc2ccccc2s1` (stereo not drawn) [Compound N-0386, Ac-QFR-kbt], the “TMPRSS2 activity (%)” value on human TMPRSS2 is 22.2147% and 27.837% and 33.2674%. The inhibition at 0.01 µM on human TMPRSS2 came out at 73%. The Ki on Recombinant human DESC1 (mean ± s.d., max concentration 10 µM, read-out: Ki DESC1) is 0.0091 ± 0.0019 µM; on human thrombin, > 10 µM; on Recombinant human furin, > 10 µM; at human cathepsin L (mean ± s.d., max concentration 10 µM, read-out: Ki Cathepsin L) it was 7.72 ± 0.142 µM. Also, the Nucleocapsid in data set [2] (setting [8]) is 0.1229 and 1.4208. The dsRNA in data set [2] (setting [9]) was 0.2037 and 0. Moreover, the EC50 in data set [2] (Severe acute respiratory syndrome coronavirus 2, Calu-3; read-out: SARS-CoV-2 VIDO Nucleocapsid EC50 ± SE) was 0.0023 ± 0.0017 µM. The inhibition at 0.1 µM in data set [2] (setting [10]) is > 99%. Also, the “Figure 2b dose-response, Mean” value in data set [2] (log [C] (nM) 0.20412) was found to be 63.391; in data set [2] (log [C] (nM) 0.90309), 26.1724; in data set [2] (log [C] (nM) 1.60206), 7.727; in data set [2] (log [C] (nM) 2.30103) it was 6.997; in data set [2] (log [C] (nM) 3), 2.833; in data set [2] (log [C] (nM) -0.49485), 81.0636. The “Figure 2b dose-response, Mean” value in data set [2] (log [C] (nM) -1.19382) amounted to 95.046. For the same molecule, the CC50 at 24 h in data set [1] (Calu-3 lung epithelial cells, n = 2, read-out: CC50 in Calu-3 cells) is 1880 µM.
For the molecule `CC(=O)N[C@@H](CCC(N)=O)C(=O)N[C@@H](Cc1ccccc1)C(=O)N[C@@H](CCCNC(=N)N)C(=O)c1nc2ccccc2s1` [Compound N-00386], the Ki on Recombinant human DESC1 (setting [3]) is 0.0111 µM and 0.00728 µM and 0.00899 µM; at human cathepsin L (setting [4]), 7.72 µM and 7.58 µM and 7.87 µM.
Take `CC(=O)N[C@@H](CCC(N)=O)C(=O)N[C@@H](Cc1ccccc1)C(=O)N[C@@H](CCCNC(=N)N)C(=O)c1nc2ccccc2s1` [Compound N-386]: in data set [1] (setting [5]), the viability at 24 h, 3000 µM amounted to 46%; the viability at 24 h, 300 µM came out at 82.5%; the viability at 24 h, 100 µM was 87%; the viability at 24 h, 30 µM is 87.5%. Besides, in data set [1] (setting [5]), the viability at 24 h, 10 µM was found to be 87%; the viability at 24 h, 3 µM came to 95%; the viability at 24 h, 0.3 µM turned out to be 100%; the viability at 24 h, 0.03 µM amounted to 104%. In data set [1] (setting [5]), the viability at 24 h, 0.003 µM came out at 102%. Moreover, in data set [1] (setting [6]), the viability at 24 h, 3000 µM worked out at 44%; the viability at 24 h, 300 µM was 79%; the viability at 24 h, 100 µM is 86%; the viability at 24 h, 30 µM came to 85%. Moreover, in data set [1] (setting [6]), the viability at 24 h, 10 µM was 86%; the viability at 24 h, 3 µM amounted to 95%; the viability at 24 h, 0.3 µM was 98%; the viability at 24 h, 0.03 µM turned out to be 101%. The viability at 24 h, 0.003 µM in data set [1] (setting [6]) came to 102%. In addition, in data set [1] (setting [7]), the CC50 at 24 h was found to be 1880 µM. The “% of Viability” value in the data set on Calu-3 cells (Log [inhibitor] -2.52) is on record as 48%. In addition, in the data set on Calu-3 cells (Log [inhibitor] -4.00), the “% of Viability” value stood at 88%. For the same molecule, the “% of Viability” value with Calu-3 cells (Log [inhibitor] -4.52) was found to be 90%. Besides, the “% of Viability” value in the data set with Calu-3 cells (Log [inhibitor] -5.00) came to 88%. Further, the “% of Viability” value in the data set on Calu-3 cells (Log [inhibitor] -7.52) is 106%.
`CC(=O)NC(CCC(N)=O)C(=O)NC(CC1CCCCC1)C(=O)NC(CCCNC(=N)N)C(=O)c1nc2ccccc2s1` (stereo not drawn) [Compound N-0676]: on human TMPRSS2, the “TMPRSS2 activity (%)” value is 95.6684% and 87.7074% and 100.707%; the inhibition at 0.01 µM is 8%. Moreover, the inhibition at 0.1 µM in data set [2] (Severe acute respiratory syndrome coronavirus 2, Calu-3, read-out: inhibition of SARS-CoV-2 infection) was < 53%.
Take `N=C(N)NCCCC(NC(=O)C(Cc1ccccc1)NC(=O)C(CCC(N)=O)NC(=N)N)C(=O)c1nc2ccccc2s1` (stereo not drawn) [Compound N-1296]: on human TMPRSS2, the “TMPRSS2 activity (%)” value was 93.2686% and 83.3862% and 77.4595%; the inhibition at 0.01 µM turned out to be 16%. Besides, in data set [2] (setting [8]), the Nucleocapsid was 31.7311 and 81.7299. Besides, the dsRNA in data set [2] (setting [9]) is 37.1641 and 78.8536. For the same molecule, in data set [2] (setting [10]), the inhibition at 0.1 µM is < 44%.
